Laboratory results reported in patent US10842807B2, “Methods of treating neurodegenerative disorders comprising DNA methyltransferase inhibitors” (Washington University, priority 2016, dated 2020).

B1: BDNF: recombinant BDNF protein added in the culture medium (protein, UniProt P23560 19-247, looked up)
Neurotrophic factor BDNF …: APMKEANIRGQGGLAYPGVRTHGTLESVNGPKAGSRGLTSLADTFEHVIEELLDEDQKVRPNEENNKDADLYTSRVMLSSQVPLEPPLLFLLEEYKNYLDAANMSMRVRRHSDPARRGELSVCDSISEWVTAADKKTAVDMSGGTVTVLEKVPVSKGQLKQYFYETKCNPMGYTKEGCRGIDKRHWNSQCRTTQSYVRALTMDSKKRIGWRFIRIDTSCVCTLTIKRGR

Experiments:
Type in all cases: cell-based, mouse
[1] = system: Htt-72Q-expressing primary cortical neurons; assay: Epigenetic drug library screen, resazurin (Alamar Blue) assay; details: 0.02, 0.2, 2 μM added at DIV 6, resazurin at DIV 14; hits validated by MTS
Description: As epigenetic gene regulation is a cell-type specific mechanism, we used a physiologically relevant, post-mitotic cortical neuron culture system for this screen. In this system, lentivirus-mediated expression of the exon 1-encoded N-terminal fragment of mutant Htt (Htt-72Q with a 72 glutamine repeat), but not wild-type (WT) Htt (Htt-25Q), induces neurotoxicity^38. […] In the drug screen, the viability of Htt-expressing cortical neurons was determined by the resazurin (Alamar Blue) assay, a quantitative measurement of mitochondrial metabolic activity, which correlates with cell viability.
Epigenetic drug screen was performed using a primary cortical neuron model of HD with a drug library composed of 84 compounds (Table 1), among which 80 drugs are purchased from Cayman Chemical (Epigenetic Screening Library Item No 11076) and four drugs, SGC0946, EPZ5676, EPZ6438, and GSK126, were obtained from Xcessbio Biosciences Inc. Mouse primary cortical neurons were plated on 96-well flat clear bottom black plates (Corning #3904). WT or mutant Htt exon1 fragment (Htt-25Q or Htt-72Q)-expressing lentiviruses are infected at DIV 5 as described above. The 84 compounds were added to the media at DIV 6 one day after Htt lentiviral infection with three different doses (0.02, 0.2, 2 μM) for each compound at triplicates. DMSO was used as control. Media containing compounds or DMSO were changed every three days to maintain the compounds' activity. At DIV 14, the viability of neurons was determined by resazurin (Alamar blue) assay, a quantitative measurement of mitochondrial metabolic activity. The screen was fully automated and performed in the High-Throughput Screening Center in Washington University School of Medicine. Any possible plate effects were determined using control plates treated with DMSO and used for normalization. Screen hits were validated by MTS assay.

[2] = system: Htt-72Q-expressing primary cortical neurons; assay: MTS cell viability assay in Htt-expressing primary cortical neurons; details: for viability of mutant Htt-expressing neurons (MTS assay), validation of screen hits: 0.02, 0.2, 2 μM vs Htt-72Q (0 μM); for viability of Htt-72Q-expressing neurons (MTS assay): MTS at DIV 14
Description: Mouse primary cortical and striatal neurons from embryonic day (E) 15.5 Swiss Webster mouse fetuses (Taconic) were first plated in the minimal essential medium (MEM) containing 10% FBS, 0.45% glucose, 1 mM sodium pyruvate, 2 mM glutamine, 20 U/ml penicillin and 20 μg/ml streptomycin, for 3 h and then maintained in serum-free Neurobasal medium (Life Technologies) containing NeuroCult™ SM1 neuronal supplement ([…] Technologies), 0.5 mM glutamine and 25 μM glutamate for the first 3 d in a humidified incubator (37° C. in 5% CO2). Half of the medium was replaced with Neurobasal medium with SM1 and 0.5 mM glutamine every 3 days. Primary cortical neurons plated on 96-well flat clear bottom black plates (Corning #3904) at 4×10^4 cells/well were infected with Htt exon1 expression lentivirus (Htt-25Q or Htt-72Q) or control empty vector lentivirus at 5 days in vitro (DIV 5). Primary striatal neurons plated on 96-well plates at 1×10^5 cells/well were infected with Htt exon1 expression lentivirus at DIV 4. Viral copy number was adjusted for transduction of neurons on the basis of titer measured using the Lenti-X qRT-PCR titration kit (Clontech), and equal numbers of viral particles of Htt-25Q and Htt-72Q expressing lentiviruses were used for transduction. For the experiments to test effects of DNMT inhibitors, neurons were treated with inhibitors six hours after Htt lentiviral infection. One half of the media was changed every 3 days with media containing new drug. In knockdown experiments in Htt-expressing neurons, primary cortical neurons were cotransduced with Htt-expressing lentivirus and Dnmt shRNA or control shRNA lentivirus at DIV 5. pLKO.1-TRC1-luciferase (Luci) and pLKO.1-TRC2-LacZ were used as control for RNAi with pLKO.1-TRC1-Dnmt3a and pLKO.1-TRC2-Dnmt1, respectively. Lentiviral particles were prepared by transfecting 293LE cells with the lentiviral plasmid of interest along with packaging plasmid psPAX2 and envelope plasmid pCMV-SVG as described previously^86. Four days after transfection, viruses in the conditioned media were collected and purified using Lenti-X Concentrator (Clontech). Primary cortical neurons from BACHD mouse embryos (E15.5) were individually plated into separate wells and treated at DIV 4 with decitabine or vehicle for 3.5 days.

[3] = system: Htt-72Q-expressing primary striatal neurons; assay: Neurofilament (NF) immunofluorescence, neurite degeneration in striatal neurons; details: DIV 4 striatal neurons transduced, fixed seven days later; vs. Htt-72Q (0 μM)
Description: (§1) Mouse primary cortical and striatal neurons from embryonic day (E) 15.5 Swiss Webster mouse fetuses (Taconic) were first plated in the minimal essential medium (MEM) containing 10% FBS, 0.45% glucose, 1 mM sodium pyruvate, 2 mM glutamine, 20 U/ml penicillin and 20 μg/ml streptomycin, for 3 h and then maintained in serum-free Neurobasal medium (Life Technologies) containing NeuroCult™ SM1 neuronal supplement ([…] Technologies), 0.5 mM glutamine and 25 μM glutamate for the first 3 d in a humidified incubator (37° C. in 5% CO2). Half of the medium was replaced with Neurobasal medium with SM1 and 0.5 mM glutamine every 3 days. Primary cortical neurons plated on 96-well flat clear bottom black plates (Corning #3904) at 4×10^4 cells/well were infected with Htt exon1 expression lentivirus (Htt-25Q or Htt-72Q) or control empty vector lentivirus at 5 days in vitro (DIV 5). Primary striatal neurons plated on 96-well plates at 1×10^5 cells/well were infected with Htt exon1 expression lentivirus at DIV 4. Viral copy number was adjusted for transduction of neurons on the basis of titer measured using the Lenti-X qRT-PCR titration kit (Clontech), and equal numbers of viral particles of Htt-25Q and Htt-72Q expressing lentiviruses were used for transduction. […]
(§2) For the measurement of neurofilament (NF) immunofluorescence intensity, cortical and striatal neurons cultured in a 96-well plate were fixed in 4% paraformaldehyde (PFA) in PBS for 20 min nine and seven days after Htt lentiviral infection, respectively, permeabilized with 0.1% Triton X-100 in PBS for 15 min at room temperature, and subjected to indirect immunofluorescence with anti-NF (2H3) primary antibody and Alexa Fluor 568-conjugated goat anti-mouse IgG secondary antibody (Life Technologies). […] Following image background subtraction, the NF immunofluorescence intensity was quantified using an ImageJ-based macro. Image capture and quantification of Htt (EM48) immunofluorescence intensity were performed as described for those of NF. […] About 300 nuclei from three random fields in a well were counted. […]

[4] = system: Htt-72Q-expressing primary cortical neurons; assay: Neurofilament (NF) immunofluorescence, neurite degeneration in cortical neurons; details: fixed at DIV 14; vs. Htt-72Q (0 μM)
Description: as §1, §2

| Molecule | outcome in epigenetic drug screen (84 compounds) [1] | viability of mutant Htt-expressing neurons (MTS assay), validation of screen hits [2] | also measured |
| --- | --- | --- | --- |
| CNCc1ccc(-c2[nH]c3cc(F)cc4c3c2CCNC4=O)cc1 [AG-014699] | another screen hit | no significant difference in survival |  |
| CC(=O)Nc1ccc(NC(=S)NC(=O)c2ccc(C(C)(C)C)cc2)cc1 [Tenovin-1] | one of the top three positive compounds | did not significantly increase the viability of mutant Htt-expressing neurons |  |
| Nc1ncn([C@@H]2O[C@H](CO)[C@@H](O)[C@H]2O)c(=O)n1 [5-azacytidine] |  |  | viability of Htt-72Q-expressing neurons (MTS assay) ([2]; DIV 5 cortical neurons transduced with Htt lentivirus, treated with drug or DMSO (=0 μM), vs. Htt-72Q (0 μM)): no significant difference in survival; mutant Htt-induced neurite degeneration (NF immunofluorescence intensity), striatal neurons [3]: no significant difference in NF immunofluorescence intensity; Htt-72Q-induced neurite degeneration (NF immunofluorescence intensity), cortical neurons [4]: no significant difference in NF immunofluorescence intensity |
| B1 |  |  | viability of Htt-72Q-expressing neurons (MTS assay) ([2]; cultured with recombinant BDNF 50 ng/ml, vs. Htt-72Q with vehicle): increased the viability of Htt-72Q-expressing neurons |
